Experimental data: ChEMBL document CHEMBL5055675, “Apoptosis Inducing 1,3,4-Oxadiazole Conjugates of Capsaicin: Their In Vitro Antiproliferative and In Silico Studies” (ACS Med Chem Lett, 2021)
pIC50: −log10 of the molar value.

Assays:
Type in all cases: functional
SK-OV-3 = experiment: Antiproliferative activity against human SK-OV-3 cells assessed as cell growth inhibition measured after 72 hrs by crystal violet staining based assay; conditions: SK-OV-3, 72 h
NCI-H460 [1] = experiment: Antiproliferative activity against human NCI-H460 cells assessed as cell growth inhibition measured after 72 hrs by crystal violet staining based assay; conditions: NCI-H460, 72 h
HCT-116 = experiment: Antiproliferative activity against human HCT-116 cells assessed as cell growth inhibition measured after 72 hrs by crystal violet staining based assay; conditions: HCT-116, 72 h
NCI-H460 [2] = experiment: Induction of apoptosis in human NCI-H460 cells assessed as early apoptotic cells measured after 72 hrs by Annexin V-FITC and propidium iodide staining based flow cytometry analysis (Rvb= 6.61%)
NCI-H460 [3] = experiment: Induction of apoptosis in human NCI-H460 cells assessed as late apoptotic cells measured after 72 hrs by Annexin V-FITC and propidium iodide staining based flow cytometry analysis (Rvb= 6.93%)

Compound | pIC50 (SK-OV-3) | pIC50 (NCI-H460 [1]) | pIC50 (HCT-116) | Activity (NCI-H460 [2]) [%] | Activity (NCI-H460 [3]) [%]
COc1cccc2c1C(=O)c1c(O)c3c(c(O)c1C2=O)C[C@@](O)(C(=O)CO)C[C@@H]3O[C@H]1C[C@H](N)[C@H](O)[C@H](C)O1 [DOXORUBICIN] | 7.59 | 8.37 | 7.24 | 7.16 | –
COc1cc(CNC(=O)CCCC/C=C/C(C)C)ccc1O [CAPSAICIN] | 4.66 | 4.51 | 4.40 | 7.17 | 7.25
